Active and inactive are the calls of the source.
Key:
[1] = target: Glycogen synthase kinase-3 alpha (Homo sapiens, UniProt P49840)
[2] = target: T1, Dual specificity mitogen-activated protein kinase kinase 6 (Homo sapiens, UniProt P52564)
T1 sequence (P52564 whole entry): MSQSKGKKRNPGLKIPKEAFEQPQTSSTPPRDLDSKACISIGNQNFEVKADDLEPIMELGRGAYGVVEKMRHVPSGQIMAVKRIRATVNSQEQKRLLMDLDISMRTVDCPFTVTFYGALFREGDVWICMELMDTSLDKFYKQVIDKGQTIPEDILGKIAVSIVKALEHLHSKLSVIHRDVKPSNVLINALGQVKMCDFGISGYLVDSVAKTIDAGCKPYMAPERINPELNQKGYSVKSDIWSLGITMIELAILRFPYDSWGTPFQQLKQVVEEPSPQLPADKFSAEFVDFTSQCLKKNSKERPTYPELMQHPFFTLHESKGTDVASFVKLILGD

[3] = target: Ribosomal protein S6 kinase beta-1 (Homo sapiens, UniProt P23443)
[4] = target: T2, Exosome RNA helicase MTR4 (Homo sapiens, UniProt P42285)
T2 sequence (P42285 whole entry): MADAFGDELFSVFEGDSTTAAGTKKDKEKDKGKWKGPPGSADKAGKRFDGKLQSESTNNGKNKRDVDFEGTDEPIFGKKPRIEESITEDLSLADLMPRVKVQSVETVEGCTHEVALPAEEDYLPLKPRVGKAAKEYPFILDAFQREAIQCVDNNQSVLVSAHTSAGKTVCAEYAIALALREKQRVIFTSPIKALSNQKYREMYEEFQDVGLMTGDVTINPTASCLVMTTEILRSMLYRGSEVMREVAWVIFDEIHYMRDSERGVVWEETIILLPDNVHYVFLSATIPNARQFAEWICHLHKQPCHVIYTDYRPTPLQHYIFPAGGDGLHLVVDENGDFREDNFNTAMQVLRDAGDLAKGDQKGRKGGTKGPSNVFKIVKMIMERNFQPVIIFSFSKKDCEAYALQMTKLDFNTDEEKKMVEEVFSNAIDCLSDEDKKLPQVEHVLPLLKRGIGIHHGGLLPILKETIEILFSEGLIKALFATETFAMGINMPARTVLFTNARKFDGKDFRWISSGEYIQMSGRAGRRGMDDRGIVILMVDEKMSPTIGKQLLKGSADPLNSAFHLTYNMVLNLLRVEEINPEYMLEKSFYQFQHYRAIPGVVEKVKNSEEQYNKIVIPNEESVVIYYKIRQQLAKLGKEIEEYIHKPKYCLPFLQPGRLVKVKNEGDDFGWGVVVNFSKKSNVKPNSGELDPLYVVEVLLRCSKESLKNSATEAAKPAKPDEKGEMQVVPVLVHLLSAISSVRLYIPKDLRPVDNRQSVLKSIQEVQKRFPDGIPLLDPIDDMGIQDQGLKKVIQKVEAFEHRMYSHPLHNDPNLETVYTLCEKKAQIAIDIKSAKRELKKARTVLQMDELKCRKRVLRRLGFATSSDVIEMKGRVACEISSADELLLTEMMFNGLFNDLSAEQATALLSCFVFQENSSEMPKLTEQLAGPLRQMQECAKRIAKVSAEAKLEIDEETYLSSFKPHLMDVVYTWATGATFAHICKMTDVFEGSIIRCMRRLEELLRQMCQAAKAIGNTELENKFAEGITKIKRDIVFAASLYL

[5] = target: T3, General transcription and DNA repair factor IIH helicase subunit XPD (Homo sapiens, UniProt P18074); conditions: read-out: Kd apparent; k-562, colo 205, sk-n-be(2) and mv-4-11
T3 sequence (P18074 whole entry): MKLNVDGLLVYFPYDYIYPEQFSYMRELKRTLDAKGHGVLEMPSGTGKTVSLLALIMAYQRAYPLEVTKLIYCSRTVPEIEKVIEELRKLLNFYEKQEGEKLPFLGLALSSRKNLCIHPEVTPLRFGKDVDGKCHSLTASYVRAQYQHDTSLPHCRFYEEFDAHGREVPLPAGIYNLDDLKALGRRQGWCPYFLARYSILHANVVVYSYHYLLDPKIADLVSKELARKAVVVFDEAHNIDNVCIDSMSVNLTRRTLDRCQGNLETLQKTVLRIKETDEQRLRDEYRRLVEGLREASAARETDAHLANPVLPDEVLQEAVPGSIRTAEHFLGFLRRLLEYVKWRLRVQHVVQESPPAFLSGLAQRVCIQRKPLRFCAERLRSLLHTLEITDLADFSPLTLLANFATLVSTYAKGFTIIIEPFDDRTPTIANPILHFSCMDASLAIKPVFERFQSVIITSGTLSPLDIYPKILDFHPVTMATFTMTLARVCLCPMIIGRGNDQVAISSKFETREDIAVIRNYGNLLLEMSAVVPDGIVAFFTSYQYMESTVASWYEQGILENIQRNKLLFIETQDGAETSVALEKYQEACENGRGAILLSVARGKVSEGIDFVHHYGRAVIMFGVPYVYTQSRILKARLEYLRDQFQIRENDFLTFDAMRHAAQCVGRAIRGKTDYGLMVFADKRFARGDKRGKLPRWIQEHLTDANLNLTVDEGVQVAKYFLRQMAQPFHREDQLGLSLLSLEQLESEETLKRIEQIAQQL

[6] = target: T4, Interleukin-1 receptor-associated kinase 4 (Homo sapiens, UniProt Q9NWZ3)
T4 sequence (Q9NWZ3 whole entry): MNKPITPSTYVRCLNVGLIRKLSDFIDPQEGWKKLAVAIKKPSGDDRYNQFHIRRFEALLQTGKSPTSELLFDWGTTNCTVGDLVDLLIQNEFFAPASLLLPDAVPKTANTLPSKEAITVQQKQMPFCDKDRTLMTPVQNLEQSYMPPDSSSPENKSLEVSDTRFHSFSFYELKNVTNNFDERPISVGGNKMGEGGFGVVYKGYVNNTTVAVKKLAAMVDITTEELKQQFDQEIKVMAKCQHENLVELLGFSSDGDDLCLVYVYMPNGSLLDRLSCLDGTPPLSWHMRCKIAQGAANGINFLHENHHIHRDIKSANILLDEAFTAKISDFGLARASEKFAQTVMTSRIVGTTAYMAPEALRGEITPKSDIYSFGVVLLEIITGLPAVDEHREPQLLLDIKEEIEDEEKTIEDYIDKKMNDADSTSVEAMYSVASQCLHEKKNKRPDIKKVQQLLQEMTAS
Further: in the data inactive means no Kd found up to 30 µM.

Chain of Ribosomal protein S6 kinase beta-1 (P23443 whole entry): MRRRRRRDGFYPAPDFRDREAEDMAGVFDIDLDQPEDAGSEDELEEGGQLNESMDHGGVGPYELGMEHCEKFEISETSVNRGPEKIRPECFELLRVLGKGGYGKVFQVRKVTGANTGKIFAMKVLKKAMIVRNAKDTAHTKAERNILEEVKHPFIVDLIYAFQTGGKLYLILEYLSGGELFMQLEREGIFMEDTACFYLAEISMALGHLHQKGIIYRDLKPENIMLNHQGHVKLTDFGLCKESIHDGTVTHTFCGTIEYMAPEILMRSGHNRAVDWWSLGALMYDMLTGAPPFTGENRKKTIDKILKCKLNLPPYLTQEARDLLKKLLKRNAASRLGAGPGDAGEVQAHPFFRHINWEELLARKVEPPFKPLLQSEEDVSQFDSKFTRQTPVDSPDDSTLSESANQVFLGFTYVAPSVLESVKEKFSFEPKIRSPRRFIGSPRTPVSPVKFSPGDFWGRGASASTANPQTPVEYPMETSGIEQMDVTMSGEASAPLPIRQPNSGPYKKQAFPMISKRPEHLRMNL
Chain of Glycogen synthase kinase-3 alpha (P49840 whole entry): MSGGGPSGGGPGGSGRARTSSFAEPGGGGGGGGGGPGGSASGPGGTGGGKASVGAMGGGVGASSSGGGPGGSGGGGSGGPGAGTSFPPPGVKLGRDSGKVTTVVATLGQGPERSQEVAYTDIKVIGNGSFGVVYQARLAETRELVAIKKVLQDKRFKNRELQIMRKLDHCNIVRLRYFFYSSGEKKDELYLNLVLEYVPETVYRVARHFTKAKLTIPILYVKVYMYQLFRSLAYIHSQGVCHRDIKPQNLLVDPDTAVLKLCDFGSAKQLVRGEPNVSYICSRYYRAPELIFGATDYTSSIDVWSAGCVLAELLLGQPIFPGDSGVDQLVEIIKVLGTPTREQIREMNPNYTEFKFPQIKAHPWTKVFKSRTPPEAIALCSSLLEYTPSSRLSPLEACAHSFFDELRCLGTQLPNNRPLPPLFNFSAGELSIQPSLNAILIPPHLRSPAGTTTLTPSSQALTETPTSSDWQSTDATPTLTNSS

Kd [1]	Kd [2]	Kd [3]	Kd [4]	Kd [5]	Kd [6]	Compound
> 30 µM (inactive)	> 30 µM (inactive)	> 30 µM (inactive)	> 30 µM (inactive)	> 30 µM (inactive)	> 30 µM (inactive)	CCc1cc2c(cc1N1CCC(N3CCOCC3)CC1)C(C)(C)c1[nH]c3cc(C#N)ccc3c1C2=O [ALECTINIB]
> 30 µM (inactive)	> 30 µM (inactive)	> 30 µM (inactive)	> 30 µM (inactive)	> 30 µM (inactive)	> 30 µM (inactive)	COc1ccc2c(OCc3nnc4ccc(-c5ccccc5)nn34)ccnc2c1 [AMG-208]
> 30 µM (inactive)	> 30 µM (inactive)	> 30 µM (inactive)	> 30 µM (inactive)	> 30 µM (inactive)	> 30 µM (inactive)	S=C(NCc1ccc2c(c1)OCO2)N1CCN(c2ncnc3c2oc2ccccc23)CC1 [AMUVATINIB]
> 30 µM (inactive)	> 30 µM (inactive)	> 30 µM (inactive)	> 30 µM (inactive)	> 30 µM (inactive)	> 30 µM (inactive)	Cc1cc(Nc2nc(N[C@@H](C)c3ncc(F)cn3)ncc2Cl)n[nH]1 [AZD-1480]
3.4 µM (active)	> 30 µM (inactive)	> 30 µM (inactive)	> 30 µM (inactive)	> 30 µM (inactive)	> 30 µM (inactive)	COc1ccc(-c2ccc3ncc4c(c3c2)n(-c2ccc(N3CCNCC3)c(C(F)(F)F)c2)c(=O)n4C)cn1 [BGT-226 FREE BASE]
> 30 µM (inactive)	> 30 µM (inactive)	> 30 µM (inactive)	> 30 µM (inactive)	> 30 µM (inactive)	> 30 µM (inactive)	COc1cc2nccc(Oc3ccc(NC(=O)C4(C(=O)Nc5ccc(F)cc5)CC4)cc3)c2cc1OC [CABOZANTINIB]
> 30 µM (inactive)	> 30 µM (inactive)	> 30 µM (inactive)	> 30 µM (inactive)	> 30 µM (inactive)	> 30 µM (inactive)	c1cc(OCCN2CCCCC2)cc(-c2n[nH]c3ccc(-c4nc[nH]n4)cc23)c1 [CC-401]
> 30 µM (inactive)	> 30 µM (inactive)	> 30 µM (inactive)	> 30 µM (inactive)	> 30 µM (inactive)	> 30 µM (inactive)	COc1cc2ncnc(Nc3ccc(F)c(Cl)c3)c2cc1NC(=O)/C=C/CN1CCCCC1 [DACOMITINIB ANHYDROUS]
> 30 µM (inactive)	> 30 µM (inactive)	> 30 µM (inactive)	> 30 µM (inactive)	> 30 µM (inactive)	> 30 µM (inactive)	CC[C@@](C)(Nc1ccnc(-c2c[nH]c3ncccc23)n1)C(=O)NCC(F)(F)F [DECERNOTINIB]
> 30 µM (inactive)	> 30 µM (inactive)	> 30 µM (inactive)	> 30 µM (inactive)	> 30 µM (inactive)	> 30 µM (inactive)	COc1cc(Nc2ncc(F)c(Nc3ccc4c(n3)N(COP(=O)(O)O)C(=O)C(C)(C)O4)n2)cc(OC)c1OC [FOSTAMATINIB]
> 30 µM (inactive)	> 30 µM (inactive)	> 30 µM (inactive)	> 30 µM (inactive)	> 30 µM (inactive)	> 30 µM (inactive)	O=S(=O)(c1cccc2c(O)nccc12)N1CCCNCC1 [HYDROXYFASUDIL]
> 30 µM (inactive)	> 30 µM (inactive)	> 30 µM (inactive)	> 30 µM (inactive)	> 30 µM (inactive)	> 30 µM (inactive)	C#Cc1cccc(Nc2ncnc3cc4c(cc23)OCCOCCOCCO4)c1 [ICOTINIB]
> 30 µM (inactive)	> 30 µM (inactive)	> 30 µM (inactive)	> 30 µM (inactive)	> 30 µM (inactive)	> 30 µM (inactive)	Cc1ccc(C(=O)Nc2ccc(Oc3cc4cnn(C)c4cc3-c3cn[nH]c3)c(F)c2)c(=O)n1-c1ccc(F)cc1 [MERESTINIB]
> 30 µM (inactive)	> 30 µM (inactive)	> 30 µM (inactive)	> 30 µM (inactive)	> 30 µM (inactive)	> 30 µM (inactive)	O=C(NOC[C@H](O)CO)c1ccc(F)c(F)c1Nc1ccc(I)cc1F [MIRDAMETINIB]
> 30 µM (inactive)	> 30 µM (inactive)	> 30 µM (inactive)	> 30 µM (inactive)	> 30 µM (inactive)	> 30 µM (inactive)	COc1cccc2cc(-c3nc([C@H]4CC[C@H](C(=O)O)CC4)n4ncnc(N)c34)[nH]c12 [OSI-027]
> 30 µM (inactive)	> 30 µM (inactive)	> 30 µM (inactive)	> 30 µM (inactive)	> 30 µM (inactive)	> 30 µM (inactive)	O=C(Nc1ccc(OC(F)(F)F)cc1)c1sccc1NCc1ccnc2ccccc12 [OSI-930]
> 30 µM (inactive)	> 30 µM (inactive)	> 30 µM (inactive)	> 30 µM (inactive)	> 30 µM (inactive)	> 30 µM (inactive)	O=C(NC[C@H](O)CO)c1ccncc1Nc1ccc(I)cc1F [PIMASERTIB]

Compound	Kd [1]	Kd [2]	Kd [3]	Kd [4]	Kd [5]	Kd [6]
NC[C@@](O)(c1ccc(Cl)cc1)c1ccc(-c2cn[nH]c2)cc1 [AT-13148]	> 30 µM (inactive)	> 30 µM (inactive)	> 30 µM (inactive)	> 30 µM (inactive)	> 30 µM (inactive)	> 30 µM (inactive)
CNC(=O)c1ccc(Nc2ncc(C(F)(F)F)c(NCc3nccnc3N(C)S(C)(=O)=O)n2)cc1 [DEFACTINIB]	1.46 µM (active)	> 30 µM (inactive)	> 30 µM (inactive)	> 30 µM (inactive)	2.26 µM (active)	> 30 µM (inactive)
Cc1c(Cn2c(C)nc3c(C(=O)O)cc(N4CCOCC4)cc32)cccc1C(F)(F)F [GSK-2636771]	> 30 µM (inactive)	> 30 µM (inactive)	> 30 µM (inactive)	> 30 µM (inactive)	> 30 µM (inactive)	> 30 µM (inactive)
